Assay results as given in US6545052B2, “Methods and compositions for inhibiting free radical polymerization in skin and hair” (Fan Tech, Ltd., priority 2000, dated 2003).

Assay: free radical inhibition assay: inhibition of polymerization of acrylic acid to polyacrylic acid
Conditions: for % Polymerization (after 3 hours at 85° C.): 30% acrylic acid in water, 200 ml, 0.6 ml of 1% inhibitor solution, initiated with azobisisobutyronitrile, remaining acrylic acid by iodine value
Description: A presently preferred method for determining the free radical inhibitory capacity of a compound is based on the ability of such a compound to inhibit free radical polymerization of acrylic acid to polyacrylic acid. […] As will be appreciated, the amount of polyacrylic acid formed is inversely related to the amount of acrylic acid (i.e., monomer) remaining in the reaction mixture at the end of the assay. The amount of acrylic acid may be routinely determined by measuring the iodine value of the reaction mixture or by other methods known in the art for determinating unsaturation. A well-known free radical inhibitor compound such as hydroquinone mono methyl ether (HQMME) may be used as a standard inhibitor compound in the assay.
Into each of three 250 ml beakers, labeled “1,” “2,” and “3” respectively, is added 200 ml of a 30% solution of acrylic acid (in water). One-tenth gram of 1,3-di(3-methoxybenzyl)thiourea was dissolved in 9.9 grams of isopropyl alcohol to give a 1% (w/w) solution of the free radical inhibitor compound. […] One-tenth gram of azobisisobutyronitrile (a free radical initiator) was dissolved in 9.9 grams of isopropyl alcohol to provide a 1% solution of the free radical initiator. To beaker 1, containing 200 ml of the acrylic acid solution was added 0.6 ml of the 1% solution of 1,3-di(3-methoxybenzyl)thiourea. To beaker 2, containing 200 ml of the acrylic acid solution was added 0.6 ml of the 1% solution of hydroquinone mono methyl ether. To beaker 3 was added 0.6 ml of isopropyl alcohol (no inhibitor). […] After 3 hours, the beakers were removed from the hot plate to stop the reaction from progressing further, and the amount of acrylic acid which remained in the reaction mixture was determined by measuring the iodine value of an aliquot of the reaction mixture using the A.O.C.S. Method Tg 1a-64T in Official Methods And Recommended Practices Of The AOCS, by American Oil Chemists' Society, Champaign, Ill.

SMILES | % Polymerization (after 3 hours at 85° C.) | inhibition of the free radical polymerization reaction (in words) (assay of Example 10, 85° C., 3 hours)
COc1cccc(CNC(=S)NCc2cccc(OC)c2)c1 [1,3-di(3-methoxybenzyl)thiourea, 1,3-di-(3-methoxybenzyl) thiourea] | 48.6% | strongly inhibited
COc1ccc(O)cc1 [hydroquinone mono methyl ether, reference compound] | 78.6% | –
